Results published in patent US20080248012A1, “Erythrocyte Function Modifying Substance” (KEIO UNIVERSITY, priority 2004, published 2008).
“Also recorded” adds a separate entry of the source.

Tested on: human erythrocytes
Experiment: ATP release from erythrocytes at adjusted oxygen / CO2 partial pressure, luciferin assay
Format: cell-based
Details: for ATP release from erythrocytes in relation to oxygen partial pressure: PO2 0-150 mmHg, 37° C., 5 min, bezafibrate 10^−4 mol/L (30 min), 100% CO gas 1 min, NO 0.5 equivalents to hemoglobin; for ATP release at various CO2 partial pressures: PCO2 0 to 80 mmHg, 5 minutes
Experimental: Human peripheral blood sample (20 ml) was taken, heparinized and centrifuged at 2000 rpm for 7 minutes. The erythrocyte pellet was collected and washed. Then, an erythrocyte suspension (1×10^7 cells/ml) was prepared with Krebs buffer. A tightly sealed cuvette containing 1.8 ml of Krebs buffer in which oxygen concentration is adjusted at a desired level within a range of 0-150 mmHg was incubated at 37° C. A 200 μl aliquot of the erythrocyte suspension was injected into the tightly sealed cuvette with a microsyringe. After 5 minutes, the cuvette was placed in ice at 4° C. to terminate the reaction. A 200 μd sample was taken while it was still 4° C., and centrifuged. The ATP in the resultant supernatant was quantitatively determined by luciferin assay.
In this example, the effects of carbon monoxide-saturated erythrocytes (CO-Hb) and NO treated erythrocytes (αNO-Hb) on ATP release were examined. The method was as described in Example 1 above. In order to examine the effect of NO, an experiment was conducted using erythrocytes prepared as described below. Briefly, collected erythrocytes were completely deoxygenated by feeding argon gas. Then, NO-glutathione was added thereto so that the concentration of this substance to the concentration of Hb was 1:2. Several minutes after the addition, the erythrocytes were centrifuged and recovered. The hemoglobin contained in the above erythrocytes is expressed as “αNO-Hb”.
Briefly, adenosine was added to the extracellular fluid of erythrocytes for 5 minutes. To a tightly sealed cuvette containing Krebs buffer adjusted to have a desired oxygen partial pressure within a range of 0-150 mmHg, the erythrocyte suspension was injected and the reaction was terminated 1 minute thereafter.
The method used was according to the method in Example 1. The amounts of ATP release when erythrocytes were exposed to various CO2 partial pressures (PCO2) from 0 to 80 mmHg for 5 minutes were measured.

SMILES: [C-]#[O+] [CO, carbon monoxide]
- ATP release from erythrocytes in relation to oxygen partial pressure: this ability was completely eliminated
- ATP release from erythrocytes in relation to oxygen partial pressure (listed as carbon monoxide): released little ATP regardless of the oxygen partial pressure

SMILES: O=S(=O)(O)c1cc(N=C=S)ccc1C=Cc1ccc(N=C=S)cc1S(=O)(=O)O [DIDS, 4,4′-diisothiocyanate-stilbene-2,2′-disulfonic acid]
- ATP release increase due to low oxygen (10^−4 mol/L DIDS, oxygen partial pressures of 0-140 mmHg): inhibits ATP release increase due to low oxygen
- amount of ATP release, DIDS addition vs no addition (CO(+) erythrocytes, presence/absence of adenosine): no difference
- ATP release increase due to low oxygen, concentration-dependent effect (CO-untreated erythrocytes, Anoxia 0 mmHg vs Normoxia): inhibited depending on the concentration of DIDS

SMILES: N[C@@H](CCC(=O)N[C@@H](CSN=O)C(=O)NCC(=O)O)C(=O)O [NO derivative, NO-glutathione]
- ATP release from erythrocytes in relation to oxygen partial pressure: released ATP constantly regardless of the oxygen partial pressure

SMILES: [N]=O [NO, nitric oxide]
- ATP release from erythrocytes in relation to oxygen partial pressure: released ATP constantly regardless of the oxygen concentration

SMILES: Nc1ncnc2c1ncn2[C@@H]1O[C@H](CO)[C@@H](O)[C@H]1O [adenosine]
- enhancement of ATP release under normal oxygen concentration (1 μmol/L adenosine in extracellular fluid 5 min): enhanced almost two times
- enhancement of ATP release under no oxygen or low oxygen (1 μmol/L adenosine in extracellular fluid 5 min, then no/low oxygen 1 minute): enhanced almost two times; also recorded: increases ATP release about two times; also recorded: enhanced about two times
- ATP release enhancement, adenosine combined with carbon dioxide (Normoxia, raised PCO2, in the presence of adenosine): synergetic high effect

SMILES: O=C=O [carbon dioxide]
- ATP release at various CO2 partial pressures (Anoxia (no oxygen state)): not affected by PCO2
- ATP release at various CO2 partial pressures (Normoxia): increased at 60-80 mmHg
